# In patent publication US6979673B1, “Method and compositions for modulating somatolactogenic functions” (Trustees of the University of Pennsylvania, priority 1999, dated 2005):
# How the values were obtained:
# PRL [1] = molecular target: T1, PRL (Homo sapiens, UniProt P01236); assay: Co-immunoprecipitation of admixed purified epitope-tagged proteins; type: binding; parameters: Full length PRL cDNA was generated by PCR; made in house; host or cells: Drosophila S2 cells (pAc5/V5-HisA); conditions: reducing agent or divalent cation facilitated the interaction
# T1 sequence (P01236 29-227): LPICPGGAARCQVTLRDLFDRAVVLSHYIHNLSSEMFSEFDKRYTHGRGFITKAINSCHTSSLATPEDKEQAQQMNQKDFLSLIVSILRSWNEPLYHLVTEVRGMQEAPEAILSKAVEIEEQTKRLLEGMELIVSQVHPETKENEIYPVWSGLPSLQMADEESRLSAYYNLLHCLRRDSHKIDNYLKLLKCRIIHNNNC
# Nb2 cells [2] = assay: PRL-driven proliferation of Nb2 cells (3H-thymidine); type: cell-based, rat; conditions: for enhancement of PRL-driven growth vs cultures that received only PRL: Nb2 cells, biphasic, most prominent at 5–10 mM CypB and 50 pM PRL
# Protocol: (§1) The effect of exogenous CypB on PRL-driven proliferation was examined with the rat Nb2 T-cell and the human T47D breast cancer line. […] This dose-dependent biphasic effect was most prominent at physiologic concentrations ([…]) of CypB and PRL (50 pM) found in human serum. […] To determine the effect of CypB on cellular growth driven by the larger family of cytokines, to which PRL belongs, proliferation driven by interleukin-2 (IL-2), IL-3 and GH was examined.
# (§2) Nb2-cells (5×10^4; PRL-dependent, rat T-lymphoma) were plated in each well of 96 well plates in a defined DMEM-serum free medium (0.1 mM 2-mercaptoethanol, 1% penicillin/streptomycin, and 1% ITS+ (Calbiochem)). Cells were rested for 24 hours at 37° C. in this defined medium in the absence of PRL before the addition of 5–500 pM PRL (either as human pituitary isolated PRL, National Hormone and Pituitary Program, NIDDK; recombinant human PRL from E. coli, Genzyme; or recombinant human PRL from Drosophila S2 cells) alone or premixed with 1–2000 fold excess of purified CypB. Parallel studies were performed using human pituitary-derived GH (National Hormone and Pituitary Program, NIDDK). Cultures were incubated for 48 hours at 37° C. and proliferation was evaluated by the addition of 0.5 μCi of ^3H-thymidine for four hours followed by harvesting and scintillography. When stimulated with PRL alone, Nb2 cells yield sigmoid shaped growth curves that plateau at approximately 2 ng PRL/ml.
# [3] = test system: T47D human breast cancer cells; assay: Nuclear retrotranslocation of PRL, anti-PRL indirect immunofluorescence; type: cell-based; conditions: added to defined T47D culture medium; CypB added to EGF-containing medium
# Protocol: Experiments were performed to examine the ability of CypB to enhance nuclear retrotranslocation of PRL, and thereby PRL-driven proliferation.
# The role of this sequence in the CypB-mediated retrotranslocation of PRL, and its associated enhancement of growth was tested by mutagenic approaches. The putative nuclear localization sequence of CypB was deleted in the mutant CypB-NT.
# PRL [4] = molecular target: T1, PRL; assay: Co-immunoprecipitation of PRL with CypB from human serum; type: binding
# [5] = test system: IL-2-driven proliferation; assay: IL-2-driven proliferation; type: cell-based; conditions: varying concentration of CypB
# Protocol: as §1
# [6] = test system: IL-3-driven proliferation; assay: IL-3-driven proliferation; type: cell-based; conditions: varying concentration of CypB
# Protocol: as §1
# Nb2 cells [7] = assay: GH-driven proliferation; type: cell-based, rat; conditions: physiological concentrations of CypB
# Protocol: as §1
# as §2, with “When stimulated with PRL alone, Nb2 cells yield sigmoid shaped growth curves that plateau at approximately 2 ng PRL/ml.” left out
Substance,direct interaction with PRL (co-immunoprecipitation) (PRL [1]),enhancement of PRL-driven growth vs cultures that received only PRL (Nb2 cells [2]),T47D nuclei exhibiting anti-PRL immunofluorescence [3],co-immunoprecipitation of PRL from human serum (PRL [4]),effect on IL-2-driven proliferation [5],enhancement of PRL-induced proliferation (Nb2 cells [2]; cell line not given),effect on IL-3-driven proliferation [6],enhancement of GH-driven proliferation vs GH alone (Nb2 cells [7])
CypA: recombinant form of the highly homologous cyclophilin family member CypA [reference compound],failed to interact,did not result in any potentiation,,,,,,
"CypB: cyclophilin B, peptidyl prolyl isomerase, GenBank NM 000942, SEQ ID NO: 1; recombinant His-tagged",interact directly,eight-fold,95–100%,direct co-immunoprecipitation of PRL with CypB from human serum,Neither IL-2- nor IL-3-driven proliferation was altered,failed to enhance,Neither IL-2- nor IL-3-driven proliferation was altered,forty-fold
